# Data as given in PubChem BioAssay (NCI).
#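 The compound was tested at five concentrations on cells cultured in 96-well plates, with a 48-hour exposure period. Definition used: TGI = concentration required for complete inhibition of growth.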
# Tests used:
# Assay in all cases: inhibition of tumour cell growth, NCI panel, 48 h
# [1] = system: 786-0 renal
# [2] = system: A498 renal
# [3] = system: A549 NSCLC
# [4] = system: ACHN renal
# [5] = system: BT-549 breast
# [6] = system: CAKI-1 renal
# [7] = system: CCRF-CEM leukemia
# [8] = system: COLO 205 colon
# [9] = system: DU-145 prostate
# [10] = system: EKVX NSCLC
# [11] = system: HCC-2998 colon
# [12] = system: HCT-116 colon
# [13] = system: HCT-15 colon
# [14] = system: HL-60(TB) leukemia
# [15] = system: HOP-62 NSCLC
# [16] = system: HOP-92 NSCLC
# [17] = system: HS 578T breast
# [18] = system: HT29 colon
# [19] = system: IGROV1 ovarian
# [20] = system: K-562 leukemia
# [21] = system: KM12 colon
# [22] = system: LOX IMVI melanoma
# [23] = system: M14 melanoma
# [24] = system: MALME-3M melanoma
# [25] = system: MCF7 breast
# [26] = system: MDA-MB-231 breast
# [27] = system: MDA-MB-435
# [28] = system: MDA-N
# [29] = system: MOLT-4 leukemia
# [30] = system: NCI-H226 lung
# [31] = system: NCI-H23 lung
# [32] = system: NCI-H460 lung
# [33] = system: NCI-H522 lung
# [34] = system: NCI/ADR-RES ovarian
# [35] = system: OVCAR-3 ovarian
# [36] = system: OVCAR-4 ovarian
# [37] = system: OVCAR-5 ovarian
# [38] = system: OVCAR-8 ovarian
# [39] = system: PC-3 prostate
# [40] = system: RXF 393 renal
# [41] = system: SF-268 CNS
# [42] = system: SF-295 CNS
# [43] = system: SF-539 CNS
# [44] = system: SK-MEL-2 melanoma
# [45] = system: SK-MEL-28 melanoma
# [46] = system: SK-MEL-5 melanoma
# [47] = system: SK-OV-3 ovarian
# [48] = system: SN12C renal
# [49] = system: SNB-19 CNS
# [50] = system: SR leukemia
# [51] = system: SW-620 colon
# [52] = system: T-47D breast
# [53] = system: TK-10 renal
# [54] = system: U251 CNS
# [55] = system: UACC-257 melanoma
# [56] = system: UO-31 renal
# [57] = system: RPMI-8226 leukemia
# [58] = system: SNB-75 CNS
# [59] = system: UACC-62 melanoma
smiles,measurement,setting,value
Nc1cc(N)cc(Cc2ccccc2)c1,TGI,[1],> 100 µM
same,TGI,[2],> 100 µM
same,TGI,[3],> 100 µM
same,TGI,[4],> 100 µM
same,TGI,[5],> 100 µM
same,TGI,[6],> 100 µM
same,TGI,[7],> 100 µM
same,TGI,[8],> 100 µM
same,TGI,[9],> 100 µM
same,TGI,[10],> 100 µM
same,TGI,[11],> 100 µM
same,TGI,[12],> 100 µM
same,TGI,[13],> 100 µM
same,TGI,[14],> 100 µM
same,TGI,[15],> 100 µM
same,TGI,[16],> 100 µM
same,TGI,[17],> 100 µM
same,TGI,[18],> 100 µM
same,TGI,[19],> 100 µM
same,TGI,[20],> 100 µM
same,TGI,[21],> 100 µM
same,TGI,[22],> 100 µM
same,TGI,[23],> 100 µM
same,TGI,[24],> 100 µM
same,TGI,[25],> 100 µM
same,TGI,[26],> 100 µM
same,TGI,[27],> 100 µM
same,TGI,[28],> 100 µM
same,TGI,[29],> 100 µM
same,TGI,[30],> 100 µM
same,TGI,[31],> 100 µM
same,TGI,[32],> 100 µM
same,TGI,[33],> 100 µM
same,TGI,[34],> 100 µM
same,TGI,[35],> 100 µM
same,TGI,[36],> 100 µM
same,TGI,[37],> 100 µM
same,TGI,[38],> 100 µM
same,TGI,[39],> 100 µM
same,TGI,[40],> 100 µM
same,TGI,[41],> 100 µM
same,TGI,[42],> 100 µM
same,TGI,[43],> 100 µM
same,TGI,[44],> 100 µM
same,TGI,[45],> 100 µM
same,TGI,[46],> 100 µM
same,TGI,[47],> 100 µM
same,TGI,[48],> 100 µM
same,TGI,[49],> 100 µM
same,TGI,[50],> 100 µM
same,TGI,[51],> 100 µM
same,TGI,[52],> 100 µM
same,TGI,[53],> 100 µM
same,TGI,[54],> 100 µM
same,TGI,[55],> 100 µM
same,TGI,[56],> 100 µM
COc1cc(/C=C2\CC(C)C/C(=C\c3ccc(O)c(OC)c3)C2=O)ccc1O (centres undefined),TGI,[1],> 100 µM
same,TGI,[2],9.61 µM
same,TGI,[3],17.8 µM
same,TGI,[4],10.2 µM
same,TGI,[5],12.3 µM
same,TGI,[7],> 45 µM
same,TGI,[8],24.7 µM
same,TGI,[9],12.7 µM
same,TGI,[10],28.1 µM
same,TGI,[11],12.5 µM
same,TGI,[12],3.4 µM
same,TGI,[13],4.93 µM
same,TGI,[14],> 30.6 µM
same,TGI,[15],9.11 µM
same,TGI,[16],10.4 µM
same,TGI,[17],10.4 µM
same,TGI,[18],20.1 µM
same,TGI,[19],5.88 µM
same,TGI,[20],> 73.5 µM
same,TGI,[21],3.86 µM
same,TGI,[22],5.79 µM
same,TGI,[23],8.22 µM
same,TGI,[24],8.75 µM
same,TGI,[25],19.3 µM
same,TGI,[26],8.35 µM
same,TGI,[27],6.21 µM
same,TGI,[28],7.37 µM
same,TGI,[29],17.8 µM
same,TGI,[30],17.6 µM
same,TGI,[31],11 µM
same,TGI,[32],9.45 µM
same,TGI,[33],3.86 µM
same,TGI,[34],> 62.2 µM
same,TGI,[35],6.47 µM
same,TGI,[36],8.96 µM
same,TGI,[37],40.8 µM
same,TGI,[38],32.4 µM
same,TGI,[39],20.5 µM
same,TGI,[57],> 100 µM
same,TGI,[40],7.56 µM
same,TGI,[41],20.7 µM
same,TGI,[42],29.8 µM
same,TGI,[43],> 23.7 µM
same,TGI,[44],17.8 µM
same,TGI,[45],8.95 µM
same,TGI,[46],4.52 µM
same,TGI,[47],12.4 µM
same,TGI,[48],8.35 µM
same,TGI,[49],22.3 µM
same,TGI,[58],15 µM
same,TGI,[50],> 25.5 µM
same,TGI,[51],5.41 µM
same,TGI,[52],4.5 µM
same,TGI,[53],15.8 µM
same,TGI,[54],5.59 µM
same,TGI,[55],9.08 µM
same,TGI,[59],4.01 µM
same,TGI,[56],5.41 µM
